One experiment relates to rat aortas. In words: Contraction of rat aortas induced by potassium depolarization (hyperpotassium medium). Further details: species or system WISTAR rat. The following applies: 80 mM KCl, 37 mM NaCl, read-out: IC50 (concentration inhibiting by 50% the contraction of rat aortas induced by potassium depolarization). An excerpt: The rings are linked to a STATHAM tension sensor (UC2-GOULD).

A further experiment relates to rabbit aortas. Briefly: Contraction of rabbit aortas induced by noradrenaline in a medium without calcium. Set-up: species or system New Zealand rabbit. The conditions noted are these: Oryctolagus cuniculus, 0.5 h, rabbit aorta, incubated 30 minutes; for inhibition at 1 µM: compound 10^-6 M; for inhibition at 0.1 µM: compound 10^-7 M. As for the experimental part: Studies are carried out on rings, 3 mm in length, […] The vascular rings are immersed in a normal physiological solution or in a physiological solution lacking calcium (+0.2 mM of the chelating agent EGTA), which is thermostatically regulated at 37° C. and aerated with a 95% O2 +5% CO2 mixture. The rings are linked to a STATHAM tension sensor (UC2-GOULD). The optimal tension for each vessel is applied and a stabilization period of 90 min is observed for the preparations. b) Antivasoconstrictive activity of the compounds of the invention in a medium without calcium.

Structures are written as SMILES. Counter-ions that a name gives are not always drawn.

Consider `COc1ccc(OCCCCN2CCC(N(C)S(=O)(=O)c3cccc4cnccc34)CC2)cc1` [Example 7, N-Methyl-N-{1-[4-(p-methoxyphenoxy)butyl]-4-piperidyl}-5-isoquinolinesulfonamide hydrochloride], for which the IC50 in the experiment on rat aortas came to 1900 nM. In addition, in the experiment with rabbit aortas, the inhibition (usually the share of the control response that was lost under treatment) at 1 µM is 13%.

For `CN(C1CCN(CCCCOc2ccc(Cl)cc2)CC1)S(=O)(=O)c1cccc2cnccc12` [Example 6, N-Methyl-N-{1-[4-(p-chlorophenoxy)butyl4-piperidyl}-5-isoquinolinesulfonamide hydrochloride], the IC50 in the experiment with rat aortas stood at 1100 nM. In addition, in the experiment on rabbit aortas, the inhibition at 1 µM was 18%.

Take `CN(CC1CCN(CCCNc2ccc(F)cc2)CC1)S(=O)(=O)c1cccc2cnccc12` [Example 25, N-Methyl-N-{1-[3-(p-fluorophenylamino)propyl]-4-piperidyl]methyl}-5-isoquinolinesulfonamide fumarate]: in the experiment with rabbit aortas, the inhibition at 1 µM came to 77% and the inhibition at 0.1 µM worked out at 22%.

Regarding `CN(C1CCN(CCCCSc2ccc(F)cc2)CC1)S(=O)(=O)c1cccc2cnccc12` [Example 12, N-Methyl-N-{1-[4-(p-fluorophenylthio)butyl]-4-piperidyl}-5-isoquinolinesulfonamide dihydrochloride], in the experiment on rat aortas, the IC50 turned out to be 1300 nM. Further, the inhibition at 1 µM in the experiment on rabbit aortas was determined as 19%.

Turning to `CCN(C1CCN(CCCCOc2ccc(F)cc2)CC1)S(=O)(=O)c1cccc2cnccc12` [Example 26, N-Ethyl-N-{1-[4-(p-fluorophenoxy)butyl]-4-piperidyl}-5-isoquinolinesulfonamide dihydrochloride], in the experiment on rat aortas, the IC50 is 5300 nM. In addition, the inhibition at 1 µM in the experiment on rabbit aortas amounted to 26%.

As for `CN(C1CCN(CCCCOc2ccc([N+](=O)[O-])cc2)CC1)S(=O)(=O)c1cccc2cnccc12` [Example 2, N-Methyl-N-{1-[4-(p-nitrophenoxy)butyl]-4-piperidyl}-5-isoquinolinesulfonamide fumarate], the IC50 in the experiment with rat aortas amounted to 1300 nM. The inhibition at 1 µM with rabbit aortas is 12%.

`O=S(=O)(NCC1CCN(CCCNc2ccc(F)cc2)CC1)c1cccc2cnccc12` [Example 24, N-{[1-[3-(p-fluorophenylamino)propyl]-4-piperidyl]methyl}-5-isoquinolinesulfonamide fumarate]: the IC50 in the experiment with rat aortas was found to be 4500 nM. Further, in the experiment with rabbit aortas, the inhibition at 1 µM stood at 67% and the inhibition at 0.1 µM amounted to 38%.

For the molecule `CN(CC1CCN(CCCOc2ccc(F)cc2)C1)S(=O)(=O)c1cccc2cnccc12` (stereo not shown) [Example 22, N-Methyl-N-{[1-[3-(p-fluorophenoxy)propyl]-3-pyrrolidinyl]methyl}-5-isoquinolinesulfonamide dihydrochloride], the IC50 in the experiment with rat aortas is 3600 nM. Moreover, in the experiment with rabbit aortas, the inhibition at 1 µM stood at 82% and the inhibition at 0.1 µM turned out to be 43%.

`O=S(=O)(NCC1CCN(CCCOc2ccc(F)cc2)CC1)c1cccc2cnccc12` [Example 15, N-{[1-[3-(p-Fluorophenoxy)propyl]-4-piperidyl]methyl}-5-isoquinolinesulfonamide]: in the experiment on rat aortas, the IC50 came to 3500 nM. Besides, in the experiment on rabbit aortas, the inhibition at 1 µM came out at 59%.

Turning to `O=S(=O)(NC1CCN(CCCCOc2ccc(F)cc2)CC1)c1cccc2cnccc12` [Example 13, N-{1-[4-(p-fluorophenoxy)butyl]4-piperidyl)}-5-isoquinolinesulfonamide dihydrochloride], the IC50 with rat aortas was 2900 nM. In the experiment on rabbit aortas, the inhibition at 1 µM was determined as 42%.

`CN(C1CCN(CCCCOc2ccc(C#N)cc2)CC1)S(=O)(=O)c1cccc2cnccc12` [Example 8, N-Methyl N-{1-[4-(p-cyanophenoxy)butyl]4-piperidyl}-5-isoquinolinesulfonamide dihydrochloride]: in the experiment on rat aortas, the IC50 stood at 950 nM.

With `CN(C1CCN(CCCCOc2ccccc2)CC1)S(=O)(=O)c1cccc2cnccc12` [Example 3, N-Methyl-N-{1-[4-(phenoxy)butyl]4-piperidyl}-5 isoquinolinesulfonamide fumarate], in the experiment with rat aortas, the IC50 worked out at 1700 nM. The inhibition at 1 µM in the experiment with rabbit aortas is 47%.

Take `CN(CC1CCN(CCCCOc2ccc(F)cc2)C1)S(=O)(=O)c1cccc2cnccc12` (stereo not shown) [Example 21, N-Methyl-N-{[1-[4-(p-fluorophenoxy)butyl]-3-pyrrolidinyl]methyl}-5-isoquinolinesulfonamide dihydrochloride]: in the experiment with rat aortas, the IC50 stood at 1900 nM. In addition, in the experiment on rabbit aortas, the inhibition at 1 µM is 73% and the inhibition at 0.1 µM amounted to 17%.

Regarding `CN(CC1CCN(CCCOc2ccccc2)CC1)S(=O)(=O)c1cccc2cnccc12` [Example 19, N-Methyl-N-{[1-[3-(phenoxy)propyl]-4-piperidyl]methyl}-5-isoquinolinesufonamide], in the experiment on rat aortas, the IC50 amounted to 2800 nM. Also, in the experiment on rabbit aortas, the inhibition at 1 µM stood at 67% and the inhibition at 0.1 µM is 31%.

The values are drawn from patent US5208243A, “5-isoquinolinesulfonamides” (Adir et Compagnie, priority 1991, dated 1993).
